Source: patent publication US20100003217A1, “Compounds and Pharmaceutical Compositions for the Treatment of Viral Infections” (priority 2008, published 2010)
Values joined by “and” are separate entries in the source; they are usually repeats but may differ in a detail not shown here. Equal values may be shown once.

Tests used:
[1] = test system: rat primary hepatocytes; assay: Metabolic disposition of [^14C]-Compound 1 and [^14C]-2′-C-methyl guanosine in rat primary hepatocytes (incubation medium, cellular extracts, nucleotide levels); assay type: in vitro ADME, Sprague Dawley rat
Procedure: (§1) Primary hepatocytes: Freshly isolated cells from animal and human liver were obtained in suspension on ice. Cells were pelleted by centrifugation at 70-75×g (rat) or 95-90×g (monkey and human) and resuspended at 0.8 million cells per mL of platting medium (William's E supplemented with 5% FBS, 0.5% penicillin-streptomycin, 1% L-glutamine, 4 μg/mL insulin and 1 μM dexamethasone). Multi-well collagen I-coated plates (rat tail collagen type I; 12- or 6-well) were then seeded by addition of 1 mL (12-well; 0.8 million cells/well) or 2 mL (6-well; 1.6 million cells/well) of cell suspension. The plates were gently shaken to evenly distribute the cells and placed in an incubator at 37° C. for approximately 4 to 6 hours to allow cells to attach. Once cells were attached, the platting medium was removed and replaced with hepatocyte culture medium (William's E supplemented with penicillin-streptomycin, 1% L-glutamine, 1% insulin-transferrin-selenium and 0.1 μM dexamethasone). Cells were left overnight in an incubator at 37° C. to acclimatize to culture and the medium.
(§2) Hepatocyte incubations with radiolabeled Compound 1 and 2′-C-methyl guanosine, both labeled in the C-8 position of the guanine moiety, were conducted at a final volume of 2.0 mL hepatocyte culture medium/well ([…]). Culture medium from overnight incubation of cells was removed and replaced with fresh medium, pre-warmed to 37° C., containing 1 or 10 μM [^14C]-Compound 1 ([…]) or [^14C]-2′-C-methyl guanosine (127 DPM/μmol) from a stock solution in DMSO (final DMSO concentration was 0.1%) or 50% ethanol (final ethanol concentration was 0.2%). After 1, 4, 8 and 24 hours, 0.5-1.0 mL of incubation medium was removed and stored at −20° C. until analysis (described below). The remaining medium was discarded and cell monolayers were carefully washed two times with ice-cold PBS. Following the last wash, all PBS was carefully removed and 1.0 mL of extraction solution (ice-cold 70% methanol) added. Cells were scrapped off and suspended in the extraction solution, transferred to 2 mL polypropylene microfuge tubes and intracellular contents extracted overnight at −20° C.
(§3) Preliminary identification of putative metabolites was conducted by comparing the retention time of observed metabolites in incubation medium and cellular extracts with retention times obtained with chemically synthesized standards using the chromatography conditions described below. Further identification of 2′-C-methyl guanosine nucleotides (mono-, di- and triphosphate) was carried out by incubating cellular extract samples with alkaline phosphatase (10 units for 60 min at 37° C.) and comparing the HPLC retention times of the resulting nucleosides with that of authentic 2′-C-methyl guanosine.
(§4) Cellular extracts were prepared by centrifugation at 16,000 RCF using an Eppendorf microcentrifuge (Eppendorf, Model 5415D) for 10 min to remove cellular debris. An aliquot of 5-10 μL of the supernatant was added to 5 mL of EcoLite™ (MP, Irvine, Calif.) liquid scintillation cocktail and radioactivity measured by liquid scintillation counting (LSC) using a Beckman Coulter LS6500 multipurpose liquid scintillation counter (Beckman Instruments, Fullerton, Calif.). The remaining sample was then dried using a Labconco refrigerated centrivap concentrator (Labconco, Kansas City, Mo.). Dry extracts were reconstituted in 120 μL of HPLC-grade water and centrifuged at 16,000 RCF using an Eppendorf microcentrifuge for 10 min. Prior to HPLC analysis (described below), radioactivity of the concentrated extracts was measured by LSC using 5 μL aliquots. Extraction recovery was then determined by comparing total radioactivity in extracts before and after drying. The remaining extract was then analyzed by HPLC with online radioactivity detection using a Flow Scintillation Analyzer Radiomatic™ 515TR. Radioactivity in the separated components was quantified by integrating the peaks using Flo-One™ Software (Perkin Elmer Life Sciences). […]

[2] = test system: monkey primary hepatocytes; assay: Metabolic disposition of [^14C]-Compound 1 and [^14C]-2′-C-methyl guanosine in monkey primary hepatocytes (incubation medium, cellular extracts, nucleotide levels); assay type: in vitro ADME, Cynomolgus monkey
Procedure: as §1, §2, §3, §4

[3] = rat hepatocytes (Rs458), 1 μM [^14C]-Compound 1, 1 h
[4] = rat hepatocytes (Rs458), 1 μM [^14C]-Compound 1, 8 h
[5] = rat hepatocytes (Rs458), 1 μM [^14C]-Compound 1, 24 h

- metabolites observed in cellular extracts (% of total radioactivity) ([1]; rat hepatocytes (Rs448, Rs458), 10 μM [^14C]-Compound 1, 1 h, listed as Compd 2): 1.92% and 3.48%
- metabolites observed in cellular extracts (% of total radioactivity) ([1]; rat hepatocytes (Rs448, Rs458), 10 μM [^14C]-Compound 1, 8 h): BLD
- metabolites observed in cellular extracts (% of total radioactivity) ([1]; rat hepatocytes (Rs448, Rs458), 10 μM [^14C]-Compound 1, 24 h): BLD
- metabolites observed in medium (% of total radioactivity) ([1]; rat hepatocytes (Rs458), 1 μM [^14C]-Compound 1, 0 h): 1.05%
- metabolites observed in cellular extracts (% of total radioactivity) [1, 3]: 5.83%
- metabolites observed in medium (% of total radioactivity) [1, 3]: 3.02%
- metabolites observed in cellular extracts (% of total radioactivity) [1, 4]: BLD
- metabolites observed in medium (% of total radioactivity) [1, 4]: 9.52%
- metabolites observed in cellular extracts (% of total radioactivity) [1, 5]: BLD
- metabolites observed in medium (% of total radioactivity) [1, 5]: 7% and 7.43%
- metabolites observed in medium (% of total radioactivity) ([1]; rat hepatocytes (lots Rs448, Rs458), 10 μM [^14C]-Compound 1, 0 h): 2.2% and 1.5%
- metabolites observed in medium (% of total radioactivity) ([1]; rat hepatocytes (lots Rs448, Rs458), 10 μM [^14C]-Compound 1, 1 h): 1.9% and 1.5%
- metabolites observed in medium (% of total radioactivity) ([1]; rat hepatocytes (lots Rs448, Rs458), 10 μM [^14C]-Compound 1, 4 h): 5.3% and 5.1%
- metabolites observed in medium (% of total radioactivity) ([1]; rat hepatocytes (lots Rs448, Rs458), 10 μM [^14C]-Compound 1, 8 h): 5.7% and 6.8%
- metabolites observed in medium (% of total radioactivity) ([1]; rat hepatocytes (lots Rs448, Rs458), 10 μM [^14C]-Compound 1, 24 h): 3.7% and 4.6%
- metabolites observed in cellular extracts (% of total radioactivity) ([2]; monkey hepatocytes (Cy230, Cy234), 10 μM [^14C]-Compound 1, 1 h): 3.20% and 7.96%
- metabolites observed in cellular extracts (% of total radioactivity) ([2]; monkey hepatocytes (Cy230, Cy234), 10 μM [^14C]-Compound 1, 8 h): BLD^c and BLD
- metabolites observed in cellular extracts (% of total radioactivity) ([2]; monkey hepatocytes (Cy230, Cy234), 10 μM [^14C]-Compound 1, 24 h): BLD
- metabolites observed in cellular extracts (% of total radioactivity) ([2]; monkey hepatocytes (Cy234), 10 μM [^14C]-Compound 1, 4 h): 1.25%
- metabolites observed in medium (% of total radioactivity) ([2]; monkey hepatocytes (lot Cy234), 10 μM [^14C]-Compound 1, 4 h): 1.1%
- metabolites observed in medium (% of total radioactivity) ([2]; monkey hepatocytes (lots Cy230, Cy234), 10 μM [^14C]-Compound 1, 0 h): 1.0% and 6.2%
- metabolites observed in medium (% of total radioactivity) ([2]; monkey hepatocytes (lots Cy230, Cy234), 10 μM [^14C]-Compound 1, 1 h): 1.9% and 0.6%
- metabolites observed in medium (% of total radioactivity) ([2]; monkey hepatocytes (lots Cy230, Cy234), 10 μM [^14C]-Compound 1, 8 h): 8.5% and 1.8%
- metabolites observed in medium (% of total radioactivity) ([2]; monkey hepatocytes (lots Cy230, Cy234), 10 μM [^14C]-Compound 1, 24 h): 7.0% and 8.2%
SMILES: C[C@@]1(O)[C@H](O)[C@@H](COP(=O)(O)NCc2ccccc2)O[C@H]1n1cnc2c(=O)[nH]c(N)nc21 [Compound 2, [(2R)-2-methyl-β-D-ribofuranosyl]guanine-N-benzylaminyl-5′-monophosphate]
